Earlier results, collected in US20260242330A1, “USE OF AN AMANTADINE MONONITRATE COMPOUND IN MANUFACTURE OF A MEDICAMENT FOR THE PREVENTION AND TREATMENT OF HYPERTENSION” (GUANGZHOU MAGPIE PHARMACEUTICALS CO., LTD., priority 2022, published 2026).

tested on: 24-hour blood pressure in primary hypertension; details: cited from earlier work

First: CCOC(=O)[C@H](CCc1ccccc1)N[C@H]1CCc2ccccc2N(CC(=O)O)C1=O [benazepril]
Second: CCCCC(=O)N(Cc1ccc(-c2ccccc2-c2nnn[nH]2)cc1)[C@H](C(=O)O)C(C)C [valsartan]
The “average 24-hour dynamic diastolic pressure decrease” value of the first is lower: 3.33 mmHg for the first, 6.04 mmHg for the second.

First: COCCc1ccc(OCC(O)CNC(C)C)cc1 (centres unmarked) [metoprolol]
Second: Cc1cccc(Nc2ccncc2S(=O)(=O)NC(=O)NC(C)C)c1 [tolasemide]
The “average 24-hour dynamic diastolic pressure decrease” value of the first is higher: 4.6 mmHg for the first, 2.42 mmHg for the second.

Compared with `CCOC(=O)[C@H](CCc1ccccc1)N[C@H]1CCc2ccccc2N(CC(=O)O)C1=O` [benazepril], `CCCCC(=O)N(Cc1ccc(-c2ccccc2-c2nnn[nH]2)cc1)[C@H](C(=O)O)C(C)C` [valsartan] is higher in “average 24-hour dynamic systolic pressure decrease” value: 6.74 mmHg for the first, 8.08 mmHg for the second.

First: COCCc1ccc(OCC(O)CNC(C)C)cc1 (centres unmarked) [metoprolol]
Second: Cc1cccc(Nc2ccncc2S(=O)(=O)NC(=O)NC(C)C)c1 [tolasemide]
The “average 24-hour dynamic systolic pressure decrease” value of the first is higher: 6.66 mmHg for the first, 5.92 mmHg for the second.
